# Assay: Inhibition of dog kidney Sodium/potassium-transporting ATPase by ELISA
# Set-up: species or system Canis lupus familiaris
row,SMILES,IC50 [nM]
1,C[C@]12C[C@@H](O)[C@H]3[C@@H](CC[C@]4(O)C[C@@H](OC(=O)CCCCCCCCCCCO)CC[C@]34CO)[C@@]1(O)CC[C@@H]2c1ccc(=O)oc1,120
2,C[C@]12C[C@@H](O)[C@H]3[C@@H](CC[C@]4(O)C[C@@H](OC(=O)CCCCC/C=C\CCCCCCO)CC[C@]34CO)[C@@]1(O)CC[C@@H]2c1ccc(=O)oc1,100
3,C[C@]12C[C@@H](O)[C@H]3[C@@H](CC[C@]4(O)C[C@@H](OC(=O)CCCCCCCCCCCCCO)CC[C@]34CO)[C@@]1(O)CC[C@@H]2c1ccc(=O)oc1,100
4,C[C@]12C[C@@H](O)[C@H]3[C@@H](CC[C@]4(O)C[C@@H](O)CC[C@]34CO)[C@@]1(O)CC[C@@H]2c1ccc(=O)oc1,120

# From ChEMBL document CHEMBL1151320, “Isolation and characterization of novel endogenous digitalis-like factors in the ovary of the giant toad, Bufo marinus” (J Nat Prod, 1998)
